Assay results: patent publication EP4242199A1 (priority 2022, dated 2023)
Like-named read-outs stand apart in the source and are kept apart here.

Key:
Sclerotinia sclerotiorum = assay type: cell-based
Septoria tritici = experiment: Microtest: activity against wheat leaf blotch pathogen Septoria tritici (SEPTTR); assay type: cell-based; details: relative growth vs active compound-free control (100%), 405 nm, 7 days after inoculation, 18°C
[1] = tested on: Qol (G143A) resistant isolate of Septoria tritici; experiment: Microtest: activity against resistant isolate of Septoria tritici (SEPTTR res); assay type: cell-based; details: relative growth vs active compound-free control (100%), 405 nm, 7 days after inoculation, 18°C
Pyricularia oryzae = assay type: cell-based; details: PYRIOR, relative growth vs active compound-free control (100%), 405 nm, 7 days after inoculation, 18°C
Cercospora sojina = assay type: cell-based
Puccinia recondita [2] = assay type: in vivo; details: for PUCCRT Disease level (%) P1 at 63 ppm: wheat, preventative spray 1 day before inoculation, % diseased leaf area, untreated 82
Puccinia recondita [3] = assay type: in vivo; details: for PUCCRT Disease level (%) K4 at 63 ppm: wheat, curative spray 4 days after inoculation, % diseased leaf area, untreated 85
Phytophthora infestans = assay type: cell-based; details: PHYTIN, relative growth vs active compound-free control (100%), 405 nm, 7 days after inoculation, 18°C
[4] = tested on: Qol (F129L) resistant isolate of Alternaria solani; experiment: Microtest: activity against resistant isolate of Alternaria solani (ALTESO res); assay type: cell-based; details: relative growth vs active compound-free control (100%), 405 nm, 7 days after inoculation, 18°C
[5] = tested on: Qol (F129L) resistant isolate of Pyrenophora teres; experiment: Microtest: activity against resistant isolate of net blotch pathogen Pyrenophora teres (PYRNTE res); assay type: cell-based; details: relative growth vs active compound-free control (100%), 405 nm, 7 days after inoculation, 18°C
Alternaria solani = assay type: cell-based
Leptosphaeria nodorum = experiment: Microtest: activity against Leptosphaeria nodorum causing wheat leaf spots (LEPTNO); assay type: cell-based; details: relative growth vs active compound-free control (100%), 405 nm, 7 days after inoculation, 18°C
Phakopsora pachyrhizi [6] = experiment: Greenhouse: protective control of soybean rust on soybeans caused by Phakopsora pachyrhizi (PHAKPA P2); assay type: in vivo; details: spray 2 days before inoculation, F129L strain, % diseased leaf area, untreated 97
Phakopsora pachyrhizi [7] = experiment: Greenhouse: protective control of soybean rust on soybeans caused by Phakopsora pachyrhizi (PHAKPA P6); assay type: in vivo; details: spray six days before inoculation, F129L strain, % diseased leaf area, untreated 74
[8] = tested on: Colletotrichum orbiculare; experiment: Microtest: activity against anthracnose pathogen Colletotrichum orbiculare (COLLLA); assay type: cell-based; details: relative growth vs active compound-free control (100%), 405 nm, 7 days after inoculation, 18°C
[9] = SCLESC, relative growth vs active compound-free control (100%), 405 nm, 7 days after inoculation, 18°C
[10] = ALTESO, relative growth vs active compound-free control (100%), 405 nm, 7 days after inoculation, 18°C

For `C/C(C#Cc1ccc(Cl)cc1)=N\OCc1ccccc1-n1nnn(C)c1=O` [Compound 1, 1-[2-[[(E)-[3-(4-Chlorophenyl)-1-methyl-prop-2-ynylidene]amino]oxymethyl]phenyl]-4-methyl-tetrazol-5-one], the “Growth (%) at 125 ppm” value (Sclerotinia sclerotiorum) was 11%, the “Growth (%) at 125 ppm” value (Septoria tritici) was 5% and the “Growth (%) at 125 ppm” value [1] was 13%. For the same molecule, the “Growth (%) at 125 ppm” value (Pyricularia oryzae) was 0% and the “Growth (%) at 125 ppm” value (Cercospora sojina) was 0%.
With `COc1nn(C)c(=O)n1-c1ccccc1CO/N=C(\C)C#Cc1ccc(Cl)cc1` [Compound 2, 4-[2-[[(E)-[3-(4-Chlorophenyl)-1-methyl-prop-2-ynylidene]amino]oxymethyl]phenyl]-5-methoxy-2-methyl-1,2,4-triazol-3-one] the “PUCCRT Disease level (%) P1 at 16 ppm” value (Puccinia recondita [2]) was 11%, the “PUCCRT Disease level (%) K4 at 16 ppm” value (Puccinia recondita [3]) was 30% and the “Growth (%) at 125 ppm” value (Pyricularia oryzae) was 16%.
For `COc1nn(C)c(=O)n1-c1ccccc1CO/N=C(\C)C#Cc1cccc(Cl)c1` [Compound 4, 4-[2-[[(E)-[3-(3-Chlorophenyl)-1-methyl-prop-2-ynylidene]amino]oxymethyl]phenyl]-5-methoxy-2-methyl-1,2,4-triazol-3-one], the “PUCCRT Disease level (%) P1 at 16 ppm” value (Puccinia recondita [2]) was 13%, the “Growth (%) at 125 ppm” value (Phytophthora infestans) was 0% and the “PUCCRT Disease level (%) K4 at 16 ppm” value (Puccinia recondita [3]) was 31%. The “Growth (%) at 125 ppm” value [4] was 16%, the “Growth (%) at 125 ppm” value (Sclerotinia sclerotiorum) was 17% and the “Growth (%) at 125 ppm” value (Septoria tritici) was 0%. The “Growth (%) at 125 ppm” value [5] was 0%, the “Growth (%) at 125 ppm” value (Alternaria solani) was 4% and the “Growth (%) at 125 ppm” value (Leptosphaeria nodorum) was 7%. For the same molecule, the “Growth (%) at 125 ppm” value [1] was 0% and the “Growth (%) at 125 ppm” value (Pyricularia oryzae) was 0%.
“(E)-4-(3-Chlorophenyl)-N-[[2-[(E)-C-(1,4,2-dioxazin-3-yl)-N-methoxy-carbonimido-yl]phenyl]methoxy]but-3-yn-2-imine [Compound 8]” was tested, and the “PUCCRT Disease level (%) P1 at 63 ppm” value (Puccinia recondita [2]) was 0%, the “PUCCRT Disease level (%) K4 at 63 ppm” value (Puccinia recondita [3]) was 28% and the “Growth (%) at 125 ppm” value (Sclerotinia sclerotiorum; [9]) was 19%. For the same molecule, the “PHAKPA Disease level (%) P2 at 63 ppm” value (Phakopsora pachyrhizi [6]) was 7%, the “Growth (%) at 125 ppm” value (Septoria tritici) was 0% and the “Growth (%) at 125 ppm” value (Alternaria solani; [10]) was 2%. For the same molecule, the “Growth (%) at 125 ppm” value (Leptosphaeria nodorum) was 2%, the “PHAKPA Disease level (%) P6 at 63 ppm” value (Phakopsora pachyrhizi [7]) was 12% and the “Growth (%) at 125 ppm” value (Pyricularia oryzae) was 0%. The “Growth (%) at 125 ppm” value [8] was 0%.
For “(E)-4-(4-chlorophenyl)-N-[[2-[(E)-C-(1,4,2-dioxazin-3-yl)-N-methoxy-carbonimidoyl]-phenyl]methoxy]but-3-yn-2-imine [Compound 7]”, the “PUCCRT Disease level (%) P1 at 63 ppm” value (Puccinia recondita [2]) was 13%, the “PUCCRT Disease level (%) K4 at 63 ppm” value (Puccinia recondita [3]) was 53% and the “Growth (%) at 125 ppm” value (Sclerotinia sclerotiorum; [9]) was 1%. For the same molecule, the “PHAKPA Disease level (%) P2 at 63 ppm” value (Phakopsora pachyrhizi [6]) was 33%, the “Growth (%) at 125 ppm” value (Septoria tritici) was 0% and the “Growth (%) at 125 ppm” value (Alternaria solani; [10]) was 1%. The “Growth (%) at 125 ppm” value (Leptosphaeria nodorum) was 0%, the “PHAKPA Disease level (%) P6 at 63 ppm” value (Phakopsora pachyrhizi [7]) was 32% and the “Growth (%) at 125 ppm” value (Pyricularia oryzae) was 0%. For the same molecule, the “Growth (%) at 125 ppm” value [8] was 0%.
For “Ethyl N-[2-[[(E)-[3-(3-chlorophenyl)-1-methyl-prop-2-ynylidene]amino]oxymethyl]-phenyl]-N-methoxy-carbamate [Compound 6]”, the “PUCCRT Disease level (%) P1 at 63 ppm” value (Puccinia recondita [2]) was 7%, the “PUCCRT Disease level (%) K4 at 63 ppm” value (Puccinia recondita [3]) was 50% and the “Growth (%) at 125 ppm” value (Sclerotinia sclerotiorum; [9]) was 17%. The “PHAKPA Disease level (%) P2 at 63 ppm” value (Phakopsora pachyrhizi [6]) was 11%, the “Growth (%) at 125 ppm” value (Septoria tritici) was 0% and the “Growth (%) at 125 ppm” value [5] was 0%. The “Growth (%) at 125 ppm” value (Alternaria solani; [10]) was 0%, the “Growth (%) at 125 ppm” value (Leptosphaeria nodorum) was 0% and the “PHAKPA Disease level (%) P6 at 63 ppm” value (Phakopsora pachyrhizi [7]) was 13%. The “Growth (%) at 125 ppm” value (Pyricularia oryzae) was 0% and the “Growth (%) at 125 ppm” value [8] was 0%.
“Ethyl N-[2-[[(E)-[3-(4-chlorophenyl)-1-methyl-prop-2-ynylidene]amino]oxymethyl]-phenyl]-N-methoxy-carbamate [Compound 5]” was tested, and the “PUCCRT Disease level (%) P1 at 63 ppm” value (Puccinia recondita [2]) was 10%, the “PUCCRT Disease level (%) K4 at 63 ppm” value (Puccinia recondita [3]) was 70% and the “Growth (%) at 125 ppm” value (Sclerotinia sclerotiorum; [9]) was 12%. The “PHAKPA Disease level (%) P2 at 63 ppm” value (Phakopsora pachyrhizi [6]) was 43%, the “Growth (%) at 125 ppm” value (Septoria tritici) was 0% and the “Growth (%) at 125 ppm” value [5] was 0%. The “Growth (%) at 125 ppm” value (Alternaria solani; [10]) was 10%, the “Growth (%) at 125 ppm” value (Leptosphaeria nodorum) was 0% and the “PHAKPA Disease level (%) P6 at 63 ppm” value (Phakopsora pachyrhizi [7]) was 48%. For the same molecule, the “Growth (%) at 125 ppm” value (Pyricularia oryzae) was 0% and the “Growth (%) at 125 ppm” value [8] was 0%.
